Among the data in the Deep4Chem optical property database are photoluminescence quantum yield values, retold here.

Several values for one entry are separate records, joined by “and”; a condition that tells them apart may be missing. Equal entries are not always repeated.

The data set can be described thus: photoluminescence quantum yield (fraction); solvent given as SMILES.
Setting [1] is: in c1ccc2c(c1)c1ccccc1n2-c1ccc(-c2ccc(-n3c4ccccc4c4ccccc43)cc2)cc1.

The molecule `CN(C)c1ccc(C2=[N+]3C(=Nc4c(-c5ccc(O)cc5)cc(-c5ccc(N(C)C)cc5)n4[B-]3(F)F)C(c3ccc(O)cc3)=C2)cc1` displayed a photoluminescence quantum yield (in C1CCOC1) of 0.04 and a photoluminescence quantum yield (in Cc1ccccc1) of 0.1.
In the case of `Nc1ccc2c(c1)C(=O)NC2=O`, the photoluminescence quantum yield by setting is: (in C1CCOC1) 0.7 and 1; (in C1COCCO1) 0.73; (in CC#N) 0.63; (in CC(C)=O) 0.68; (in CCO) 0.21; (in CN(C)C=O) 0.91. This molecule also gave a photoluminescence quantum yield (in ClCCl) of 0.76.
For the setting “in c1ccccc1”, `CCOC(=O)c1sc2nc3c(c(C#N)c2c1N)CCCCCC3` returned a photoluminescence quantum yield of 0.063.
Consider `COc1ccccc1C1=[N+]2C(=Cc3c4cc5ccccc5cc4c(-c4ccccc4OC)n3[B-]2(F)F)c2cc3ccccc3cc21`, for which the photoluminescence quantum yield (in C1CCOC1) was 0.29.
Regarding `COc1ccc(C#Cc2ccc(C#Cc3ccc(P(=O)(c4ccc(C#Cc5ccc(C#Cc6ccc(OC)cc6)cc5)cc4)c4ccc(C#Cc5ccc(C#Cc6ccc(OC)cc6)cc5)cc4)cc3)cc2)cc1`, the photoluminescence quantum yield was 0.78 (in C1CCCCC1); 0.89 (in C1COCCO1); 0.79 (in CC#N); 0.86 (in CCO); 0.71 (in CS(C)=O); 0.77 (in ClC(Cl)Cl). The same molecule yielded a photoluminescence quantum yield (in ClCCl) of 0.73.
`CCOC(=O)C1=C(C(=O)OC)N2CCc3cc(OC)c(OC)cc3C2=C[C@H](c2ccc(Cl)cc2)C12c1ccccc1-c1ccccc12` yielded a photoluminescence quantum yield (in ClCCl) of 0.00105.
As for `COC(=O)c1cccc2c1C#Cc1c(N)cccc1OCCCO2`, the photoluminescence quantum yield by setting is: (in CC#N) 0.03; (in ClCCl) 0.14.
The molecule `COc1ccc(C#Cc2nc3ccccc3nc2-c2cn(C)c3ccccc23)cc1` had a photoluminescence quantum yield (in C1CCOC1) of 0.19; a photoluminescence quantum yield (in CC#N) of 0.13; a photoluminescence quantum yield (in CC(C)=O) of 0.16; a photoluminescence quantum yield (in CC(C)O) of 0.02; a photoluminescence quantum yield (in CCO) of 0.01; a photoluminescence quantum yield (in CCOC(C)=O) of 0.17. The photoluminescence quantum yield reads like this: (in CO) 0.01; (in Cc1ccccc1) 0.3; (in ClCCl) 0.19.
Take `N#Cc1cnc(-c2c3ccccc3cc3ccccc23)nc1`: the photoluminescence quantum yield is, setting by setting: (in CCO) 0.07; (in ClCCl) 0.07.
Where the note is “in Cc1ccccc1”, `CCCCCCc1ccc(/C=C/c2ccc(CCCCCC)s2)s1` registered a photoluminescence quantum yield of 0.051.
`CCCC1(CCC)c2cc(-c3ccc(C(C)(C)CC)cc3)ccc2-c2ccc(-c3ccc(C(C)(C)CC)cc3)cc21` showed a photoluminescence quantum yield (in C1CCCCC1) of 0.92.
For the setting “in ClCCl”, `O=c1c2ccccc2n(-c2ccc(-c3ccc(-n4c5ccccc5c5ccccc54)cc3)cc2)c2ccccc12` came in with a photoluminescence quantum yield of 0.28.
On the same count and under the same terms, the same measure for `c1ccc2c(c1)ccc1c3ccccc3ccc21`: 0.12.
As for `COc1ccc2c(c1)c1cc(OC)ccc1n2-c1cc(Cl)c([C](c2c(Cl)cc(Cl)cc2Cl)c2c(Cl)cc(Cl)cc2Cl)c(Cl)c1`, the photoluminescence quantum yield (in C1CCCCC1) is 0.006.
Take `c1ccc(N(c2ccccc2)c2ccc(-c3ccc(-c4nc(-c5ccccn5)n(-c5ccccc5)n4)cc3)cc2)cc1`: where the note is “in ClCCl”, the photoluminescence quantum yield worked out at 0.392.
Same read-out and setting: the same measure for `COc1ccc(C#Cc2nc3ccccc3nc2-c2csc(OC)c2)cc1`: 0.32.
For the molecule `COc1cccc(OC)c1C1=C2C(C)=CC(C)=[N+]2[B-](F)(F)n2c(C)cc(C)c21`, the photoluminescence quantum yield was 0.64 (in C1CCOC1); 0.54 (in CC#N); 0.64 (in CC(=O)C(C)(C)C); 0.72 (in CC(C)=O); 0.71 (in CCCCCC); 0.47 (in CCOC(C)=O). The molecule further registered a photoluminescence quantum yield (in CO) of 0.58.
`CC(C)(C(=O)c1ccc(N2c3ccccc3Oc3ccccc32)cc1)C(=O)c1ccc(N2c3ccccc3Oc3ccccc32)cc1` registered a photoluminescence quantum yield under setting [1] of 0.54.
Turning to `COc1cccc(-[c+]2c3ccccc3oc3ccccc32)c1`, where the note is “in CC#N”, the photoluminescence quantum yield was determined as 0.00066.
Molecule `CCN(CC)c1ccc2cc(-c3ccc(-c4ccc(-c5cc6ccc(N(CC)CC)cc6oc5=O)cc4)cc3)c(=O)oc2c1` showed a photoluminescence quantum yield (in ClCCl) of 0.75.
Still for that read-out and setting: the same measure for `C(#Cc1cccc2ccccc12)c1ncc(-c2ccccc2)o1`: 0.28.
The molecule `CCCCCCCCC1(CCCCCCCC)c2ccccc2-c2ccc(-c3nnc(-c4ccc(-n5c6ccc(C(C)(C)C)cc6c6cc(C(C)(C)C)ccc65)cc4)o3)cc21` displayed a photoluminescence quantum yield (in Cc1ccccc1) of 0.88.
`c1ccc(-c2ccc(-c3nc(-c4ccccc4)c(N(c4ccccc4)c4ccccc4)[se]3)cc2)cc1` showed a photoluminescence quantum yield (in ClC(Cl)Cl) of 0.159.
For the setting “in Cc1ccccc1”, `COC(=O)/C(C#N)=c1\s/c(=c2/s/c(=C(/C#N)C(=O)OC)c3cc(-c4ccc5c(c4)C(C)(C)c4ccccc4-5)sc23)c2sc(-c3ccc4c(c3)C(C)(C)c3ccccc3-4)cc12` had a photoluminescence quantum yield of 0.531.
Regarding `Cc1c(OCC(=O)O)cc2c3c([nH]c2c1C)C(=O)CCC3`, the photoluminescence quantum yield reads like this: (in C1COCCO1) 0.009; (in CC#N) 0.027; (in CCO) 0.019; (in CS(C)=O) 0.089; (in O) 0.013; (in c1ccccc1) 0.008.
Turning to `CCCCN(CCCC)c1ccc(C#Cc2cc(C#Cc3ccc(C(F)(F)F)cc3)c(C#Cc3ccc(N(CCCC)CCCC)cc3)cc2C#Cc2ccc(C(F)(F)F)cc2)cc1`, the photoluminescence quantum yield (in ClCCl) came out at 0.5.
Consider `COC(=O)c1cc(=O)n(C)c2cc(-c3cc4c5c(c3)CCCN5CCC4)sc12`, for which the photoluminescence quantum yield runs as follows: (in CC#N) 0.02; (in CCO) 0.09; (in CN(C)C=O) 0.1; (in CO) 0.3; (in CS(C)=O) 0.17; (in ClC(Cl)Cl) 0.48. The photoluminescence quantum yield (in ClCCl) is 0.25.
Where the note is “in ClC(Cl)Cl”, `CCCCCCn1c2cc(/C=C(\C#N)c3ccccc3)ccc2c2ccc(/C=C(\C#N)c3ccccc3)cc21` yielded a photoluminescence quantum yield of 0.026.
In the case of `CN(C)c1ccc(/C=C/c2cc(/C=C/c3ccc(N(C)C)cc3)nc(N)n2)cc1`, the photoluminescence quantum yield (in Cc1ccccc1) worked out at 0.65 and the photoluminescence quantum yield (in ClC(Cl)Cl) turned out to be 0.55.
As to `c1ccc2c(c1)c1ccccc1n2-c1ccc2cc(-c3ccc(-c4ccc(-c5cc6ccc(-n7c8ccccc8c8ccccc87)cc6o5)cc4)cc3)oc2c1`, the photoluminescence quantum yield by setting is: (in Cc1ccccc1) 0.96; under setting [1], 1.
Regarding `CC(C)(C)OC(=O)NC(Cc1ccccc1)C(=O)OCc1ccc2c3cccc4cccc(c5cccc1c52)c43` (centres undefined), the photoluminescence quantum yield (in CCO) came to 0.86.
In turn, `C[Si]1(C)O[Si](C)(C)c2cc3c(-c4ccccc4)c4cc([N+](=O)[O-])ccc4nc3cc21` showed a photoluminescence quantum yield (in ClCCl) of 0.3.
Still for that read-out and setting: the same measure for `CCn1c2cc(-c3cccs3)ccc2c2ccc(-c3cccs3)cc21`: 0.61.
Turning to `CCOC(=O)c1c2c3c(ccc([N+](=O)[O-])c3c3cc4c(cc13)[Si](C)(C)O[Si]4(C)C)N(C)C2=O`, under “in CC#N”, the photoluminescence quantum yield was 0.3.
Regarding `C[Si](C)(C)C#CC1=CC2=c3cc(C#C[Si](C)(C)C)c4nc(C(F)(F)C(F)(F)C(F)(F)F)nc5c(C#C[Si](C)(C)C)cc(c3c54)C3=CC(C#C[Si](C)(C)C)=C4N=C(C(F)(F)C(F)(F)C(F)(F)F)N=C1C4C32` (centres undefined), under “in C1CCOC1”, the photoluminescence quantum yield turned out to be 0.45.
For the molecule `CC(=O)c1ccc2ccc3c(NCCC(=O)NCCCCCCc4nc5c(=O)[nH]c(N)nc5n4[C@H]4C[C@H](O)[C@@H](CO)O4)ccc4ccc1c2c43`, the photoluminescence quantum yield is, setting by setting: (in C1CCOC1) 0.62; (in CC#N) 0.72; (in CC(C)O) 0.58; (in CCO) 0.49; (in CN(C)C=O) 0.63; (in CO) 0.44. Moreover, the photoluminescence quantum yield worked out at 0.61 (in CS(C)=O), 0.27 (in O) and 0.38 (in OCC(O)CO).
Regarding `c1ccc(C2c3ccccc3-c3cc4c(cc32)-c2ccccc2C4c2ccccc2)cc1` (centres undefined), the photoluminescence quantum yield (in ClCCl) turned out to be 0.36.
Regarding `N#Cc1ccc(-c2ccc(C3=CCCCC3)s2)s1`, where the note is “in CCO”, the photoluminescence quantum yield worked out at 0.06.
The molecule `F[B-]1(F)OC(c2ccccc2)=Cc2ccc3ccccc3[n+]21` gave a photoluminescence quantum yield (in ClC(Cl)Cl) of 0.53 and a photoluminescence quantum yield (in ClCCl) of 0.57.
As for `c1ccc(-c2nc(-c3ccccc3)nc(-c3cc(-n4c5ccccc5c5ccccc54)c(-n4c5ccccc5c5ncccc54)c(-n4c5ccccc5c5ccccc54)c3)n2)cc1`, where the note is “in O=P(c1ccccc1)(c1ccccc1)c1ccc2oc3ccc(P(=O)(c4ccccc4)c4ccccc4)cc3c2c1”, the photoluminescence quantum yield worked out at 0.79.
`C[Si](C)(C)c1cccc2ccccc12` came in with a photoluminescence quantum yield (in C1CCCCC1) of 0.3.
For the molecule `CCCCCCC(CCCCCC)n1c(=O)c2c3ccc4cccc5c6cccc7ccc(c2c1=O)c(c76)c3c45`, the photoluminescence quantum yield by setting is: (in C1CCCCC1) 0.32; (in CC#N) 0.33; (in CC(C)=O) 0.27; (in CCCCCC) 0.32; (in CCO) 0.3; (in CCOCC) 0.34. Besides, the photoluminescence quantum yield (in CS(C)=O) was determined as 0.44, the photoluminescence quantum yield (in Cc1ccccc1) was 0.42, the photoluminescence quantum yield (in ClC(Cl)(Cl)Cl) stood at 0.37 and the photoluminescence quantum yield (in ClC(Cl)Cl) was 0.35.
For the molecule `CCCCN1C(=O)c2cc(Oc3ccc(C(C)(C)C)cc3)c3c4c(Oc5ccc(C(C)(C)C)cc5)c(Oc5ccc(C(C)(C)C)cc5)c5c6c(cc(Oc7ccc(C(C)(C)C)cc7)c(c7c(Oc8ccc(C(C)(C)C)cc8)c(Oc8ccc(C(C)(C)C)cc8)c(c2c37)C1=O)c64)C(=O)N(CCCC)C5=O`, under “in ClC(Cl)Cl”, the photoluminescence quantum yield came out at 0.75.
In the case of `c1ccc(-n2c(-c3cccc4ccccc34)nc3c4cccc5ccc6cccc(c6c54)c32)cc1`, the photoluminescence quantum yield (in Cc1ccccc1) turned out to be 1.
